Measurements: US20100048686A1, “Perfume Composition For Temperature Sense Control, Sense Control Article, Sense Control Method, And Perfume Map” (SHISEIDO CO., LTD., priority 2003, published 2010)

Legend:
Assay type in all cases: in vivo, human
test subjects [1] = assay: subjectively sensed temperature of constant-temperature water on the hands while smelling an aroma; conditions: 28° C. water, seven-point scale 7 hot to 1 extremely cold, 12 test subjects
Experimental: As a result of various research, the inventors discovered that the aroma given off by a specific perfume component can change the temperature subjectively sensed by a person (temperature sense). 12 test subjects put there hands into water held at a constant temperature, and the subjectively sensed temperature of the water was assessed on a seven-point scale in which 7 was hot, 6 was warm, 5 was somewhat warm, 4 was “can't say,” 3 was somewhat cold, 2 was cold, and 1 was extremely cold. The same 12 test subjects were asked to smell a peppermint aroma while once again putting their hands into water held at a constant temperature, and the subjectively sensed temperature of the water was assessed on a seven-point scale. The same experiment was repeated by raising the water temperature one degree at a time, and the testers looked for the temperature at which the assessment given under conditions of smelling the peppermint aroma was the same as the assessment given under conditions of no aroma at 28° C. […]
Also, to examine the change in temperature sense with and without aroma, the 12 test subjects put their hands in water with a temperature of 28° C., and the subjectively sensed temperature was assessed on a seven-point scale in the same manner as above. […]

test subjects [2] = assay: cream temperature sense and usability/skin feel with scented cotton versus no aroma; design: key to Absorption into skin / Youthfulness of skin / Stickiness of skin: five-point scale, 5 = I agree to 1 = I disagree; conditions: for Skin tightness / Absorption into skin / Cream spreading (heavy) / Cream spreading (light) / Firmness of skin / Non-stickiness of skin / Plumpness of skin / Skin freshness / Skin moistness / Skin smoothness / Skin suppleness / Stickiness of skin / Thickness of cream / Youthfulness of skin / Cream temp. sense (warm) / Cream temp. sense (cold): average; for Skin tightness: five-point scale 5 (I agree) to 1 (I disagree); for Absorption into skin / Cream spreading (heavy) / Cream spreading (light) / Firmness of skin / Non-stickiness of skin / Plumpness of skin / Skin freshness / Skin moistness / Skin smoothness / Skin suppleness / Stickiness of skin / Thickness of cream / Youthfulness of skin: five-point scale 5 to 1; for Cream temp. sense (warm): five-point scale 5 warm to 1 cold; for Cream temp. sense (cold): five-point scale, unscented cream, aroma smelled from cotton; for effect on temperature sense (raising or lowering) / perceived usability/skin feel, heavy-spreading or light-spreading / perceived usability/skin feel, moist or fresh: result in words
Experimental: Just as with the survey conducted for temperature sense above, 17 or 18 women 20 to 24 years of age were selected for this test, cotton to which no perfume had been applied was affixed to one arm, and cotton to which perfume had been applied was affixed to the other arm, the arms were each coated with an unscented cream while the subjected smelled the aroma of the cotton, and the subjectively sensed temperature of the cream was assessed on a five-point scale in which 5 was warm, 4 was somewhat warm, 3 was “can't say,” 2 was somewhat cold, and 1 was cold.
Next, the correlation of aroma-induced cosmetic temperature sense, usability, and how the cosmetic actually felt on the skin, and the correlation with the image of the aroma were tested for the above-mentioned 24 different raw material perfumes. […] The aroma image was assessed on a seven-point scale from 0 to 6, while the usability/skin feel was assessed on a five-point scale from 5 (“I agree”) to 1 (“I disagree”). In addition to assessing usability, the impression of the aroma of the perfume was also assessed at the same time. To prevent the perfume from modifying the cream, a method was employed in which the perfume component was not directly added to the cream, but was instead applied to the cotton and smelled.
The following wording was selected for usability/skin feel. • How well a cream spreads: light to heavy • Absorption into the skin: fast to slow • Makes the skin look youthful?: yes to no • Makes the skin feel sticky?: yes to no • Makes the skin feel fresh?: yes to no • Makes the skin feel moist?: yes to no • Makes the skin feel non-sticky?: yes to no • Makes the skin feel smooth?: yes to no • Makes the skin feel supple?: yes to no • Makes the skin feel tight?: yes to no • Each of these was assessed on a five-point-scale. • For impressions of aroma, words that readily express the characteristics of an aroma, and four different words (natural, rich, tender, and sharp) were selected as generic terms from among sensory adjectives and emotional adjectives used to express the five senses. Each generic term encompasses specific aroma impression words. For example, “natural” encompasses impression expressions such as transparent, bright, natural, [3] pure, etc.; “rich” encompasses thick, sultry, mature, glossy, sexy, etc.; “tender” encompasses mild, sweet, gentle, graceful, etc; and “sharp” encompasses bracing, sharp, cool, etc. […] However, the words used to express usability/skin feel and the words used to express impressions of aroma are nothing more than examples, and [the present invention] is not limited to or by these words.

test subjects [3] = assay: moisture content of the cheeks (corneometer) with scented cotton under nostrils; conditions: room temperature 23 degrees, humidity 46%
Experimental: (§1) 12 female test subjects 20 to 24 years of age were asked to wash their face and attach a piece of scented cotton under their nostrils, which was left alone for a few minutes at a room temperature of 23 degrees and a humidity of 46%, after which the moisture content (corneometer) and sebum content (sebumeter) of the cheeks were measured.

test subjects [4] = assay: sebum content of the cheeks (sebumeter) with scented cotton under nostrils; conditions: room temperature 23 degrees, humidity 46%
Experimental: as §1

test subjects [5] = assay: temperature sense of a space (clear boxes with and without aroma); conditions: face put into box with aroma versus box without; FIG. 7; result in words
Description: Also, it is possible to change the temperature sense of a person located in a specific space by dispersing in that space, by volatilization or another such means, a perfume composition containing the above-mentioned perfume component capable of changing a person's temperature sense, and having the person smell the aroma. To test this, a clear box containing scented paper and another clear box containing unscented paper were readied, and an experiment was conducting by having a test subject put his or her face into each of the boxes and compare the temperature sense of the space. […] FIG. 5 is a graph of the assessment results, and it can be seen that the temperature sense of a person located in a space can be changed by aroma. When the perfume composition is dispersed in the space so that the person will smell it, the concentration of the aroma is preferably about 0.01 to 10 ppm. With peppermint oil, for instance, about 0.4 ppm is favorable. […] The test subject put his or her face into first one box and then the other and compared the temperature sense of the space. This experiment was conducted for three different aromas, namely, peppermint, bergamot, and vanillin. A lid 6 that could be opened and closed was provided to the top of each of the boxes 1 and 2. The test subjects and experiment conditions were the same as discussed above. […]

Row | Molecule | Cream spreading (heavy) (test subjects [2]) | Cream spreading (light) (test subjects [2]) | Thickness of cream (test subjects [2]) | Cream temp. sense (warm) (test subjects [2]) | Cream temp. sense (cold) (test subjects [2]) | effect on temperature sense (raising or lowering) (test subjects [2]) | perceived usability/skin feel, heavy-spreading or light-spreading (test subjects [2]) | perceived usability/skin feel, moist or fresh (test subjects [2]) | also measured
1 | CC(C)[C@@H]1CC[C@@H](C)C[C@H]1O [L-menthol] | – | – | – | – | – | – | – | – | subjectively sensed temperature of the water, average assessment (test subjects [1]): 4.125
2 | CC(C=O)Cc1ccc(C(C)(C)C)cc1 (stereo not drawn) [B, 4-tert-butyl-α-methylhydroxycinnamic aldehyde] | 2.2 | 3.8 | 2.5 | 3.4 | 2.6 | capable of raising temperature sense | light-spreading usability/skin feel | moist usability/skin feel | Skin tightness (test subjects [2]): 3.3; Absorption into skin (test subjects [2]): 3.5; Firmness of skin (test subjects [2]): 2.9; Non-stickiness of skin (test subjects [2]): 2.5; Plumpness of skin (test subjects [2]): 2.2; Skin freshness (test subjects [2]): 3.2; Skin moistness (test subjects [2]): 3.9; Skin smoothness (test subjects [2]): 3.8; Skin suppleness (test subjects [2]): 3.4; Stickiness of skin (test subjects [2]): 3.1; Youthfulness of skin (test subjects [2]): 3.8
3 | COC(=O)c1ccccc1N=CCC(C)CCCC(C)(C)O (centres unmarked) [methyl-N-3,7-dimethyl-7-hydroxyoctylidene-anthranilate] | – | – | – | – | – | capable of lowering temperature sense | heavy-spreading usability/skin feel | fresh usability/skin feel | –
4 | CC1=CC(C)C(C=O)CC1 (centres unmarked) [E, 2,4-dimethyl-3-cyclohexenyl carboxyaldehyde] | 2.7 | 3.3 | 3.1 | 2.5 | 3.5 | capable of lowering temperature sense | light-spreading usability/skin feel | fresh usability/skin feel | Skin tightness (test subjects [2]): 2.4; Absorption into skin (test subjects [2]): 2.9; Firmness of skin (test subjects [2]): 2.8; Non-stickiness of skin (test subjects [2]): 2.6; Plumpness of skin (test subjects [2]): 2.3; Skin freshness (test subjects [2]): 3.1; Skin moistness (test subjects [2]): 3.3; Skin smoothness (test subjects [2]): 3.8; Skin suppleness (test subjects [2]): 3.4; Stickiness of skin (test subjects [2]): 3.2; Youthfulness of skin (test subjects [2]): 3.7
5 | COc1cc(C=O)ccc1O [C, vanillin] | 3.1 | 2.9 | 2.8 | 4.1 | 1.9 | capable of raising temperature sense | – | – | Moisture content (test subjects [3]): 69.3 (increase); Sebum content (test subjects [4]): no difference attributable to aroma; sense of warmth or cold inside the box (test subjects [5]): gave a warm sensation
6 | CC(=O)/C=C/C1=C(C)CCCC1(C)C [β-ionone] | – | – | – | – | – | capable of raising temperature sense | light-spreading usability/skin feel | moist usability/skin feel | –
7 | L-carvone | – | – | – | – | – | – | – | – | subjectively sensed temperature of the water, average assessment (test subjects [1]): 4
8 | Cc1occc(=O)c1O [maltol] | – | – | – | – | – | capable of raising temperature sense | – | – | –
9 | CCCCCCCC1CCC(=O)O1 (centres unmarked) [G, γ-undecalactone] | 2.2 | 3.8 | 2.1 | 3.2 | 2.8 | capable of raising temperature sense | – | – | –
10 | CC1(C)CCCC2(C)C1CCC1(C)OCCC12 (stereo not drawn) [3α,6,6,9α-tetramethyldodecahydronaphtho[2,1-b]furan] | – | – | – | – | – | capable of raising temperature sense | light-spreading usability/skin feel | moist usability/skin feel | –
11 | O=Cc1ccc2c(c1)OCO2 [heliotropine] | – | – | – | – | – | capable of raising temperature sense | light-spreading usability/skin feel | moist usability/skin feel | –
12 | CC1COCc2cc3c(cc21)C(C)(C)C(C)C3(C)C (centres unmarked) [4,6,6,7,8,8-hexamethyl-1,3,4,6,7,8-hexahydrocyclopentabenzopyran] | – | – | – | – | – | capable of raising temperature sense | light-spreading usability/skin feel | moist usability/skin feel | –
13 | Cc1ccc2c(c1)OCC(=O)CO2 [7-methyl-3,4-dihydro-(2H)-1,5-benzodioxepin-3-one] | – | – | – | – | – | capable of lowering temperature sense | light-spreading usability/skin feel | fresh usability/skin feel | –
